Experimental findings from ChEMBL document CHEMBL3886816, “Substituted 5-(3,5-dimethylisoxazol-4-yl)indoline-2-ones” (2016) are described below.

Assay [1] addresses Bromodomain-containing protein 4 (Homo sapiens, UniProt O60885). The experiment in a line: (§1) Time-Resolved Fluorescence Resonance Energy Transfer (TR-FRET) Assay: The assay was carried out in binding mixtures of the bromodomain protein, 0-10 μM compounds and tetra-acetylated histone peptide (SGRGAC.KGGAC.KGLGAC.KGGAAC.[…]-biotin) in buffer containing 25 mM HEPES pH 7.5, 100 mM NaCl, 0.1% BSA, 0.05% CHAPS, and detection reagents. […] Upon further incubation for 1 hr, the TR-FRET signals were recorded on a BMG PHERAstar FS instrument. On the technique in general: In TR-FRET formats the signal depends on donor and acceptor labels being close together.

Assay [2] deals with Bromodomain-containing protein 2 (Homo sapiens, UniProt P25440). Described as §1.
Sequence of Bromodomain-containing protein 2 (P25440 whole entry): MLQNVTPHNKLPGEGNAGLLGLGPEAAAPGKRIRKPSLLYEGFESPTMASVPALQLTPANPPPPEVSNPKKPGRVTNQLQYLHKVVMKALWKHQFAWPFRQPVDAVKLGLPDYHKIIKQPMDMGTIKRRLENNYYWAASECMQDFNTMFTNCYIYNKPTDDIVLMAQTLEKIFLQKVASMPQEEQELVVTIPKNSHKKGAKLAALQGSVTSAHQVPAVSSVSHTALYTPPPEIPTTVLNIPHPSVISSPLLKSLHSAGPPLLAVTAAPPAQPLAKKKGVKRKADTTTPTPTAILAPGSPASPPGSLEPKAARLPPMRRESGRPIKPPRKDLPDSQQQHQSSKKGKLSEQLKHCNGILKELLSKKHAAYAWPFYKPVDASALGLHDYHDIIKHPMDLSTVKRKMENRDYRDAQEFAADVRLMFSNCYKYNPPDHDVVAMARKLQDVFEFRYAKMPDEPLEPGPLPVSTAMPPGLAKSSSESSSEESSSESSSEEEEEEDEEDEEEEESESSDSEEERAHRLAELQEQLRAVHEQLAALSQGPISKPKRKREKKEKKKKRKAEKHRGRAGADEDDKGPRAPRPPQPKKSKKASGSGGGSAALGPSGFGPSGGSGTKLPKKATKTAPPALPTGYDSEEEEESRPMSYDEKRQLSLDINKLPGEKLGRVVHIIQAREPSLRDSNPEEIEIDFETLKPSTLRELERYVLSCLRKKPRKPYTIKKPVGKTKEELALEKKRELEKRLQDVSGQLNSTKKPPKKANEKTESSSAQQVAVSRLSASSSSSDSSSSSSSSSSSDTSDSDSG
Assay [3] deals with Bromodomain-containing protein 3 (Homo sapiens, UniProt Q15059). Described as §1.
Sequence of Bromodomain-containing protein 3 (Q15059 whole entry): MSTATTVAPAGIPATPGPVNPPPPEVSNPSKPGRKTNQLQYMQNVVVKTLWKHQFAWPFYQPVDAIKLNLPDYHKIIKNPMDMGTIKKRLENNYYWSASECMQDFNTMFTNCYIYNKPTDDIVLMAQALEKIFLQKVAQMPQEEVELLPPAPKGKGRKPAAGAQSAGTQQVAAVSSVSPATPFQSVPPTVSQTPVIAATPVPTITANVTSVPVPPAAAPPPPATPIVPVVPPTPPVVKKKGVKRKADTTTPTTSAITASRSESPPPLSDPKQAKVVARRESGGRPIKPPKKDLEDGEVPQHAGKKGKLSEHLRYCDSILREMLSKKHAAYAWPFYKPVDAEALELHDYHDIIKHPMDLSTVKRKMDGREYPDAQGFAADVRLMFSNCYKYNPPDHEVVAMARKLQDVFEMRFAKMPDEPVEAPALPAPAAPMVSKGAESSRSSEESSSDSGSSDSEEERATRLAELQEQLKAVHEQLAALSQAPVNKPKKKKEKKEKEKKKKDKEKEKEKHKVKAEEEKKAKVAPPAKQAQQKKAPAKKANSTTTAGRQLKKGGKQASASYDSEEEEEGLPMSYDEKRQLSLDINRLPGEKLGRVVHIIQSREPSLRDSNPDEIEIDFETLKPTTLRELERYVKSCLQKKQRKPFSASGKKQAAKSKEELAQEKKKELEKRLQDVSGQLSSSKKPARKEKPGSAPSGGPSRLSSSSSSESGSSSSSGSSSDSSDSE
Assay [4] deals with Bromodomain testis-specific protein (Homo sapiens, UniProt Q58F21). Described as §1.

`Cc1noc(C)c1-c1ccc2c(c1)C(C1CCCCC1)(N1CCN(C)CC1)C(=O)N2` (stereo not given): the IC50 in assay [1] was found to be 110 nM.

Turning to `Cc1noc(C)c1-c1ccc2c(c1)C(OCCO)(C1CCCCC1)C(=O)N2` (stereo not given), the IC50 in assay [1] came out at 82 nM. With `C=CCCC1(O)C(=O)Nc2ccc(-c3c(C)noc3C)cc21` (stereo not given), the IC50 in assay [1] was determined as 430 nM. Still for that read-out and setting: with `Cc1noc(C)c1-c1ccc2c(c1)C(O)(C1CCCCCC1)C(=O)N2` (stereo not given) the figure was 98 nM; with `C=CCCCC1(O)C(=O)Nc2ccc(-c3c(C)noc3C)cc21` (stereo not given), 540 nM; with `Cc1noc(C)c1-c1ccc2c(c1)C(C1CCCC1)(N1CCN(C)CC1)C(=O)N2` (stereo not given), 180 nM.

Consider `Cc1noc(C)c1-c1ccc2c(c1)C(N)(c1ccccc1)C(=O)N2` (single isomer, unassigned), for which the IC50 was 150 nM in assay [1], 55 nM in assay [2], 35 nM in assay [3] and 95 nM in assay [4].

What is called IC50 is the concentration at which inhibition is half-maximal.
